Key:
[1] = target: T1, NLRP3 inflammasome (Homo sapiens, UniProt Q96P20); test: NLRP3-dependent pyroptosis (LDH release) in PMA-differentiated THP-1 cells stimulated with LPS/ATP; type: cell-based; settings: compounds at 10 μM for 1 hour, differentiated THP-1, LPS 10 μg/mL 4 hours, ATP 1.5 hours; for inhibition at 10 µM: read-out: Pyroptosis inhibition (% ± SEM)
T1 construct: The THP-1 cells were differentiated into macrophages by treating them with PMA 50 nM; endogenous in cells; host or cells: THP-1 (human monocytic leukaemia line), PMA-differentiated, primed with LPS, triggered with ATP
T1 sequence (Q96P20 whole entry): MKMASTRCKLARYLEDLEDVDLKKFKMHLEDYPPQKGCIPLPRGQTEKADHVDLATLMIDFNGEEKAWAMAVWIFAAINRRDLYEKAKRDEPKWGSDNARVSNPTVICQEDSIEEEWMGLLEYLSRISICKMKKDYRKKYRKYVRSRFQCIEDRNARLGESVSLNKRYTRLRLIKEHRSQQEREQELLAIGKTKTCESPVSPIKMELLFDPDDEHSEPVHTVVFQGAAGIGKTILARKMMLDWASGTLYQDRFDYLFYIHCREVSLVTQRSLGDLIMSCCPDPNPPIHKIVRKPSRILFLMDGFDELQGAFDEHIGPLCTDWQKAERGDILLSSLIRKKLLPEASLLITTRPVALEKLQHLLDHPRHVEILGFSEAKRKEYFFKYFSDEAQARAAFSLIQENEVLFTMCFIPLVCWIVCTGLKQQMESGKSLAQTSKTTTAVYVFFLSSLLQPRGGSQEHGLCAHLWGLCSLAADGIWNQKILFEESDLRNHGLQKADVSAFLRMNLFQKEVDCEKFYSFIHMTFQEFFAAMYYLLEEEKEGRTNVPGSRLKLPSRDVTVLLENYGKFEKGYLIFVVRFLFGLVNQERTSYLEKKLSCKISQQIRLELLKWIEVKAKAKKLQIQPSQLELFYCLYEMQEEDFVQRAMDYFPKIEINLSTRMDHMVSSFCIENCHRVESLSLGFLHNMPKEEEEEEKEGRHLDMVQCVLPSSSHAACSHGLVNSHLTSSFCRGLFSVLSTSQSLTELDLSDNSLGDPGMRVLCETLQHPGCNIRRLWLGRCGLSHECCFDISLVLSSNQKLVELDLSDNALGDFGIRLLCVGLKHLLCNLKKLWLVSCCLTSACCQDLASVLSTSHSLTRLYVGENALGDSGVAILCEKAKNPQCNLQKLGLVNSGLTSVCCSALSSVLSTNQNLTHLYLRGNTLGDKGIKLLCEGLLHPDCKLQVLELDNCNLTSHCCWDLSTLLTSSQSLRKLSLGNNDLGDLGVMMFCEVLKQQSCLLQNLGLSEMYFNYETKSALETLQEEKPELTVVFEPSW
Description: (§1) THP-1 cells, a monocytic human cell line derived from the peripheral blood of a patient suffering from acute monocytic leukaemia (www.atcc.org), were cultured in RPMI 1640 medium (Aurogene, Rome, Italy), with the addition of foetal bovine serum (10%, Aurogene), L-glutamine (2 mM, Aurogene), penicillin (100 IU/ml, Aurogene) and streptomycin ([…], Aurogene). The medium was changed every 2-3 days, and the cells were maintained in an incubator at 37° C., with 5% CO2, and with suitable humidity.
The cells were seeded in 48-well plates (90.000 cells/well), and differentiated with phorbol 12-myristate 13-acetate (PMA—50 nM, 24 hours; Sigma-Aldrich). On the next day, the differentiated THP-1s were washed twice with the balanced saline solution phosphate-buffered saline (PBS), and stimulated with lipopolysaccharide (LPS) (10 μg/mL, 4 hours; Sigma-Aldrich), prepared in serum-free medium. After 4 hours the cells were incubated with the compounds at the concentration of 10 μM for 1 hour, operating in triplicate; INF176 and INF177 were tested at three different concentrations: […]. Finally, the cells were stimulated with ATP 5 mm for 1.5 hours. The supernatants were then harvested for the subsequent analyses.
LDH release into the supernatant obtained as described above was quantified using the CytoTox 96 nonradioactive cytotoxicity assay (Promega Corporation, Madison, […], USA), a colorimetric assay wherein LDH activity is measured with an NADH-dependent enzymatic reaction:
Briefly, an equal volume of CytoTox Reagent was added to the supernatant and, after 30 minutes' incubation, the reaction was stopped by adding the stop solution. The formazan concentration was determined by measuring absorbance, using a microplate reader (Victor X4—EnSight, PerkinElmer, Waltham, MA, USA), at λ=490 nm. Cell death was expressed according to the manufacturer's instructions.
The compound INF176 was tested to measure its ability to inhibit NLRP3-dependent cell pyroptosis in human macrophages, using the experimental protocol previously published [Cocco et al. 2017].
The THP-1 cells were differentiated into macrophages by treating them with PMA 50 nM (24 hours) and then with LPS (10 μg/mL) for 4 hours. The cells were treated with the compound (10 μM) for 1 hour. Pyroptosis was induced by treatment with ATP 5 mm. After 90 minutes, cell death was evaluated by measuring the LDH level in the cell supernatant using the CytoTox 96 Non-Radioactive Cytotoxicity Assay (Promega Corporation, Madison, […], USA).

[2] = test system: THP-1 cells; test: Cytotoxicity (MTT assay); type: cell-based, human
Description: (§2) The THP-1 cells were seeded in a 96-well plate (15.000 cells/well) and incubated with the test compounds at four different concentrations (0.1, 1, 10 and 100 μM), operating in triplicate. The cells were placed in an incubator at 37° C., with 5% CO2, and cell viability was measured after 72 hours' incubation, using the MTT assay. This is a colorimetric assay, based on conversion of water-soluble 3-(4,5-dimethylthiazol-2-yl)-2,5-diphenyltetrazolium bromide (MTT; Sigma-Aldrich) to a violet-coloured insoluble formazan, by the mitochondrial dehydrogenase present in the live cells. The formazan is solubilised in acidified isopropanol, and the concentration is determined by measuring absorbance with a microplate reader (Victor X4—Ensight, PerkinElmer) at λ=570 nm. Viability was expressed as a percentage of the viability of the control cells, which were either untreated or treated with the carrier. The IC50 was calculated with the Graph Pad Prism software.

[3] = target: T2, IL-1beta (Homo sapiens, UniProt P01584); settings: cited from earlier work
T2 construct: host or cells: patients (clinical trial)

[4] = Cytotoxicity (MTT assay); type: cell-based, human; settings: human; THP-1 cells, 72 hours' incubation
Description: as §2

[5] = Stability in PBS pH 7.4 with excess glutathione or cysteamine (HPLC); type: physicochemical; settings: 100 μM, PBS pH 7.4, 37° C.
Description: The compound INF177 was incubated at the concentration of 100 μM in PBS pH 7.4 (0.1% DMSO) at 37° C., in the absence and in the presence of excess glutathione or cysteamine (10×). The reaction mixture underwent repeated HPLC analyses over 24 hours.
The HPLC analysis was conducted with an HP 1200 chromatography system (Agilent Technologies, Palo Alto, CA, USA) consisting of an integrated quaternary pump (model G1311A), degasser (model G1322A), UV MWD detector (model G1365D) and fluorescence detector (model G1321A). The data were processed with the HP ChemStation system program (Agilent Technologies).
The analyses were conducted using the ZORBAX SB-Phenyl column (250×4.6 mm, 5 μm; Agilent) as stationary phase and CH3CN/H2O (+0.1% HCOOH), 70/30 (v/v), flow rate=1.0 mL/min, as mobile phase, injecting 20 μL of sample (Rheodyne, Cotati, CA); the chromatograms were acquired at the wavelengths of 234 and 250 nm.

[6] = test system: SAMP8 mice; test: SAMP8 mice, model of neurodegenerative disorders (Morris test, brain markers); type: in vivo; settings: SAMP8, 50 mg/kg/day p.o., 2 months
Description: Compound INF176 was tested in vivo in an animal model of mice with spontaneous accelerated senescence (SAMP8), used as a model of neurodegenerative disorders such as mild cognitive impairment (MCI), which in most cases evolve to Alzheimer's disease (AD).

[7] = target: T1, NLRP3 inflammasome; test: IL-1β release (ELISA) from differentiated THP-1 cells stimulated with LPS/ATP; type: cell-based; settings: at the maximum concentration tested (FIG. 1B)
Description: as §1
The cells were seeded in 48-well plates (90.000 cells/well), and differentiated with phorbol 12-myristate 13-acetate (PMA—50 nM, 24 hours; Sigma-Aldrich). On the next day, the differentiated THP-1s were washed twice with the balanced saline solution phosphate-buffered saline (PBS), and stimulated with lipopolysaccharide (LPS) (10 μg/mL, 4 hours; Sigma-Aldrich), prepared in serum-free medium. […]
IL-1β release into the supernatant of cells treated as described above was determined with the Human IL-1 beta Uncoated ELISA kit (Invitrogen, Waltham, MA, USA), according to the manufacturer's instructions. […]
The interleukin levels were determined by measuring absorbance at X=450 nm, using a microplate reader (Victor X4—EnSight).

[8] = test system: colon of SAMP8 animals; test: Colon contractions elicited by electrical stimuli (in vitro), SAMP8; design: species or system mice
[9] = test system: murine model of colitis induced by dextran sodium sulphate (DSS); test: Colitis induced by dextran sodium sulphate (DSS), murine model; type: in vivo; settings: 25 mg/kg/day and 50 mg/kg/day p.o.
Description: In particular, oral administration (p.o.) of INF176 at the doses of 25 mg/kg/day and 50 mg/kg/day gave rise to an improvement in the systemic and tissue parameters associated with colitis (FIGS. 2-3).

[10] = test system: SAMP8 animals; test: SAMP8 animals: colon transit and colon IL-1β; type: in vivo, mice

Compound: (Z)-3-(2-chlorophenyl)-2-((phenylthio)methyl)acrylic acid [INF80]
- Pyroptosis inhibition (% ± SEM) [1]: <10%
- IC50 [2]: 92.8 ± 1.6 µM

Compound: canakinumab
- reduction in lung cancer deaths ([3]; after treatment with canakinumab): 77%
- change in mortality due to cardiovascular events ([3]; patients at cardiovascular risk): −31%

Compound: NC(=O)C1CCCN(C(=O)/C(=C/c2ccccc2Cl)CSc2ccccc2)C1 (stereo not drawn) [INF219, (Z)-1-(3-(2-chlorophenyl)-2-((phenylthio)methyl)acryloyl)piperidine-3-carboxamide]
- inhibition at 10 µM [1]: 13 ± 8.2%
- IC50 at 72 h [4]: > 100 µM
- melting point: 60.5 to 61.4 °C

Compound: O=C(O)C1CCCN(C(=O)/C(=C/c2ccccc2Cl)CSc2ccccc2)C1 (stereo not drawn) [INF177, (Z)-1-(3-(2-chlorophenyl)-2-((phenylthio)methyl)acryloyl)piperidine-3-carboxylic acid]
- inhibition at 10 µM [1]: 20.1 ± 9.8%
- reactivity towards glutathione or cysteamine ([5]; 10× excess thiol, over 24 hours): no appreciable reactivity was observed
- % compound remaining ([5]; cysteamine 10×, after 2.5 hours): > 98%
- % compound remaining ([5]; glutathione 10×, after 4 hours): > 98%
- % compound remaining ([5]; glutathione or cysteamine 10×, 24 hours): ≥ 96%
- IC50 at 72 h [4]: > 100 µM

Compound: CCOC(=O)C(Cc1ccccc1Cl)CS(=O)(=O)C1CCCCC1 (stereo not drawn) [INF111, ethyl 2-(2-chlorobenzyl)-3-(cyclohexylsulphonyl)propanoate]
- inhibition at 10 µM [1]: < 10%
- IC50 at 72 h [4]: 98.1 ± 4.8 µM

Compound: CCOC(=O)C1CCN(C(=O)/C(=C/c2ccccc2Cl)CSc2ccccc2)CC1 [INF180, ethyl (Z)-1-(3-(2-chlorophenyl)-2-((phenylthio)methyl)acryloyl)piperidine-4-carboxylate]
- inhibition at 10 µM [1]: 13.8 ± 7.1%
- IC50 at 72 h [4]: > 100 µM

Compound: CCOC(=O)C(CSCC(NC(=O)OC(C)(C)C)C(=O)OC)Cc1ccccc1Cl (stereo not drawn) [INF55, ethyl 3-((2-((tert-butoxycarbonyl)amino)-3-methoxy-3-oxopropyl)thio)-2-(2-chlorobenzyl)propanoate]
- inhibition at 10 µM [1]: < 10%
- IC50 at 72 h [4]: > 100 µM

Compound: CCOC(=O)[C@@H](CSc1ccccc1)[C@H](O)c1ccccc1Cl (mixture of isomers) [INF38s, Ethyl(2S,3S)-3-(2-chlorophenyl)-3-hydroxy-2-(phenylsulphanylmethyl)-propanoate and ethyl(2R,3R)-3-(2-chlorophenyl)-3-hydroxy-2-(phenylsulphanylmethyl)propanoate]
- inhibition at 10 µM [1]: 23.5 ± 4.2%
- IC50 at 72 h [4]: > 100 µM

Compound: CCOC(=O)C1CCCN(C(=O)/C(=C/c2ccccc2Cl)CSc2ccccc2)C1 (stereo not drawn) [INF176, ethyl (Z)-1-(3-(2-chlorophenyl)-2-((phenylthio)methyl)acryloyl)piperidine-3-carboxylate]
- cognitive decline (Morris test: escape latency, crossings in quadrant, entries into quadrant) [6]: significantly counteracts cognitive decline
- expression of p-tau protein in brain tissues [6]: significantly reduces expression of p-tau protein
- inhibition at 10 µM [1]: 45.2 ± 7.2%
- inhibition of IL-1beta release from human macrophages [7]: 35±1.2%
- cholinergic colon contractions ([8]; SAMP8, 50 mg/kg (FIG. 5)): significantly enhancing
- tachykininergic colon contractions ([8]; SAMP8, 50 mg/kg (FIG. 5)): significantly enhancing
- colon contractions elicited by electrical stimuli ([8]; SAMP8, 50 mg/kg (FIG. 5B)): significantly improves
- body weight (weight loss) [9]: counteracts weight loss
- disease activity index (DAI) [9]: significantly reduces
- interleukin-1beta levels in colon tissues [9]: significantly reduces
- myeloperoxidase levels in colon tissues [9]: significantly reduces
- spleen weight [9]: counteracts weight loss and increased spleen weight
- colon transit (pellets expelled in 1 hour) ([10]; SAMP8, 50 mg/kg (FIG. 5A)): improves slowing of colon transit
- IL-1β levels in the colon ([10]; SAMP8, 50 mg/kg (FIG. 6)): reduces the increase in IL-1β levels
- IC50 at 72 h [4]: 94.2 ± 6.9 µM
